Experimental data taken from patent publication US20230287051A1, “INHIBITORS OF COMPLEMENT FACTOR C3 AND THEIR MEDICAL USES” (ZP SPV 3 K/S, priority 2020, published 2023).
Values belong to the molecule of their own block, whether it stands above or below them. Numbered stars: 1 amine (or outer) side, 2 acyl side, 3 side chain; on linkers, the order of the positions; unused ones are H or OH. Bridge positions count the residues as written; N and C are the ends. Square brackets hold non-standard residues; d marks the D form. Side chains are listed from the residue outwards. Peptide text beside a SMILES is read from it. * marks the point of attachment. Trp(1-Me) = Cn1cc(C[C@H](N)C(=O)O)c2ccccc21; C18 diacid = O=C(O)CCCCCCCCCCCCCCCCC(=O)*; C16 diacid = O=C(O)CCCCCCCCCCCCCCC(=O)*; γGlu = O=C(O)[C@H](CCC(=O)[*:2])N[*:1]; AEEA = NCCOCCOCC(=O)O; CH2 = C([*:1])[*:2]; Sar = CNCC(=O)O

Legend:
[1] = test system: classical complement pathway; experiment: In vitro haemolysis assay (inhibition of classical complement pathway); assay type: cell-based; settings: human serum, sensitized sheep RBC, 30 minutes at 37° C., absorbance at 405 nm, n=>2; read-out: IC50, inhibition of hemolysis
Protocol: The in vitro effect of some of the compounds described herein was assessed by measuring their inhibitory effect of the classical complement pathway in a haemolysis assay.
Briefly, compounds described herein and reference compounds were dissolved in DMSO and diluted in Tris/Casein Assay Buffer (10 mM Tris, 145 mM NaCl, 0.5 mM MgCl2, 0.15 mM CaCl2, and 0.1% W/V casein, adjusted to pH 7.4) as 9-point serial dilutions in a 96-well plate. Sensitized sheep red blood cells (RBC) coated with rabbit anti-sheep erythrocyte antiserum (Complement Technology, Inc., TX, USA) were washed in Tris/asein Assay Buffer. 50 μL from each well of diluted compound was added to a 96-well plate containing 50 μL diluted human serum (Complement Technology, Inc., TX, USA) and incubated for 15 minutes at room temperature. The serum dilution factor was optimized for every serum batch to obtain 70-90% of maximal haemolysis using the protocol. Then 50 μL sensitized sheep RBCs were added to all wells ([…]).
After 30 minutes of incubation at 37° C. with gentle agitation, the reaction was stopped by addition of 50 μL Tris STOP Buffer per well (10 mM EDTA, 10 mM Tris, 145 mM NaCl adjusted to pH 7.4). The RBCs were then removed by centrifugation and the resulting supernatant measured for hemolysis by absorbance at 405 nm.
The response was normalized relative to a positive and negative control (vehicle) to calculate the IC50 (nM) from the concentration response curve using the 4-parameter logistic (4PL) nonlinear model for curve fitting (Table 2). All values are based on n=>2 independent determinations.

Human C3 = target: T1, Human C3 (Homo sapiens, UniProt P01024); experiment: Affinity measurement by surface plasmon resonance with immobilized C3; settings: SPR, immobilized human C3, 25° C., 1:1 Langmuir binding model, n=>2
T1 construct: purchased Complement tech A113c
Protocol: (§1) Surface plasmon resonance (SPR) was used to characterize peptides with respect to their binding affinity (Kd) for C3.
(§2) For interaction experiments, a multi-cycle experiment approach was used and performed using a BiacoreX100™ instrument (GE Healthcare) at 25° C. Peptides were injected in increasing concentration series (5 different concentrations and buffer reference) for 180 seconds at a flow rate of 30 μL/min in a buffer consisting of 50 mM Tris buffer at pH 7.4, with 150 mM NaCl and 0.05% Tween20. This was followed by a dissociation period for 10 min. The C3 surface was regenerated between runs by two consecutive injections of 3 M MgCl2 each for 45 seconds.
(§3) Sensorgrams were double-referenced (reference surface, blanks) prior to analysis of the kinetic profiles by globally fitting data to a 1:1 Langmuir binding model to obtain association and dissociation rates for calculation of the equilibrium dissociation constant Kd (Table 3). Each peptide was tested at in at least 2 independent experiments.

[2] = target: T2, Human C3 (Complement tech cat #A113c) (human, UniProt P01024 23-1663); experiment: cell-based or functional assay
T2 sequence (P01024 23-1663 limits assumed): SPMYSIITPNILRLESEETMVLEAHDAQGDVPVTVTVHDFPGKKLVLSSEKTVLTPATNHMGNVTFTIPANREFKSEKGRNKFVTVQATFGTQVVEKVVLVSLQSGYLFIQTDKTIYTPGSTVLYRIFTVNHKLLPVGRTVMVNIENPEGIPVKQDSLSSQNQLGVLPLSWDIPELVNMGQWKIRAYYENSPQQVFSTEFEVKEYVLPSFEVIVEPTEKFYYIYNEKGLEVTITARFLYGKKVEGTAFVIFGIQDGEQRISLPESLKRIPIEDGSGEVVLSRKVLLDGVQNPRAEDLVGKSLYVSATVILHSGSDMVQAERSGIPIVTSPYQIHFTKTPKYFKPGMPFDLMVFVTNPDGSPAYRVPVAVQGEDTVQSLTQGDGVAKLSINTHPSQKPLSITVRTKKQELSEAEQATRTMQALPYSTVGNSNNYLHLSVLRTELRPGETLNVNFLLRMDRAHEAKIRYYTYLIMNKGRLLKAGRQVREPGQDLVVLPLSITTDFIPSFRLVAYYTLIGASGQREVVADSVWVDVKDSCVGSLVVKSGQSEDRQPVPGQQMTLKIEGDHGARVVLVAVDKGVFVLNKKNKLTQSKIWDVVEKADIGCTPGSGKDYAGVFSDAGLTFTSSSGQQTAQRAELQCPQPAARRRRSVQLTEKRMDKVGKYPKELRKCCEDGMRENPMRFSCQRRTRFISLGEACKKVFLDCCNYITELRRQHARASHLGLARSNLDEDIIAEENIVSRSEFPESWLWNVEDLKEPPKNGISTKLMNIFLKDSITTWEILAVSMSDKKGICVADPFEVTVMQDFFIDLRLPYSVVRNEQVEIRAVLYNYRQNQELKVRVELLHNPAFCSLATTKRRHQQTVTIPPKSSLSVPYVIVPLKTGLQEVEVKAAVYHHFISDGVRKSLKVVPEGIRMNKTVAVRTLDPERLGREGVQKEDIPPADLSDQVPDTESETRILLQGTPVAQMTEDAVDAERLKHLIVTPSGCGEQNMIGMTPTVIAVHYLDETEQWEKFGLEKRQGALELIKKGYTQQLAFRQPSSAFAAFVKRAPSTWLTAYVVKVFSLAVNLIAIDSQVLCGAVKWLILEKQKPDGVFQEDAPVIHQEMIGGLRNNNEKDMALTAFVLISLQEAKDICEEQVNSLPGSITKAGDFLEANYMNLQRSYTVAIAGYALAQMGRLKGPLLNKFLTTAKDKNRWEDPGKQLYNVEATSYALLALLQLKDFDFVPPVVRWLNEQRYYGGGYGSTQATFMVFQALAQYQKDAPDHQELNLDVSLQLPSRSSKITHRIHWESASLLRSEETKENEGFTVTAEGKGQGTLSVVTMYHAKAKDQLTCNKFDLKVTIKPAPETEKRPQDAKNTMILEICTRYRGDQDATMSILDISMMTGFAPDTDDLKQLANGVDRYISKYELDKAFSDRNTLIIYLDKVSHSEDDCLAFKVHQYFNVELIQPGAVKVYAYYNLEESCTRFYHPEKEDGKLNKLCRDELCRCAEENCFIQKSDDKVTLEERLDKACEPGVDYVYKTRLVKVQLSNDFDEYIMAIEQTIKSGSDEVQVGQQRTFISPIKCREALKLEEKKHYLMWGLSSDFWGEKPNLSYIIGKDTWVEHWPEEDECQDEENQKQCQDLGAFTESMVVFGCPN

[3] = target: T2, Human C3 (Complement tech cat #A113c); experiment: SPR (Biacore X100, 25 C), human C3 amine-coupled on CM5 chip, peptide as analyte, 1:1 Langmuir fit
Protocol: as §1
as §2, with “min.” for “min. The C3 surface was regenerated between runs by two consecutive injections of 3 M MgCl2 each for 45 seconds.”
as §3

Kd (Human C3): 17 nM
Molecule: CC[C@H](C)[C@@H]1NC(=O)[C@@H](NC(=O)[C@H](Cc2ccccc2)NC(=O)CNC(=O)[C@H](CO)NC(=O)[C@H](CCC(=O)O)NC(=O)CNC(=O)[C@H](CCC(=O)O)NC(C)=O)CSCSC[C@@H](C(=O)N[C@H](C(=O)N[C@@H](CCC(=O)O)C(=O)NCC(=O)N[C@@H](CCC(=O)O)C(=O)NCCOCCOCC(=O)NCCOCCOCC(=O)N[C@@H](CCCCNC(=O)CC[C@H](NC(=O)CNC(=O)CC[C@H](NC(=O)CCCCCCCCCCCCCCCCC(=O)O)C(=O)O)C(=O)O)C(N)=O)[C@@H](C)O)NC(=O)[C@H](CCCNC(=N)N)NC(=O)[C@H](Cc2c[nH]cn2)NC(=O)[C@H](CCC(=O)O)NC(=O)CN(C)C(=O)[C@H](Cc2c[nH]c3ccccc23)NC(=O)[C@H](CC(=O)O)NC(=O)[C@H](CCC(N)=O)NC(=O)[C@H](Cc2cn(C)c3ccccc23)NC1=O [Compound 27, Ac-EGESGF[C(1)]I[1-Me-Trp]QDW[Sar]EHR[C(1)]TEGE[Peg3][Peg3]-K([17-Carboxy-heptadecanoyl][yGlu]G[yGlu])-NH2] (Ac-EGESGFCI[Trp(1-Me)]QDW[Sar]EHRCTEGE[AEEA][AEEA]K([γGlu-Gly-γGlu-C18 diacid])-NH2; linker 7-17 via CH2)
IC50 [1]: < 100 nM

Kd (Human C3): 19 nM
Molecule: CC[C@H](C)[C@@H]1NC(=O)[C@@H](NC(=O)[C@H](Cc2ccccc2)NC(=O)[C@H](CCC(=O)O)NC(=O)[C@H](CO)NC(C)=O)CSCSC[C@@H](C(=O)N[C@H](C(=O)N[C@@H](CCC(=O)O)C(=O)NCCOCCOCC(=O)NCCOCCOCC(=O)N[C@@H](CCCCNC(=O)CC[C@H](NC(=O)CNC(=O)CC[C@H](NC(=O)CCCCCCCCCCCCCCCCC(=O)O)C(=O)O)C(=O)O)C(N)=O)[C@@H](C)O)NC(=O)[C@H](CCCNC(=N)N)NC(=O)[C@H](Cc2c[nH]cn2)NC(=O)[C@H](CCC(=O)O)NC(=O)CN(C)C(=O)[C@H](Cc2c[nH]c3ccccc23)NC(=O)[C@H](CC(=O)O)NC(=O)[C@H](CCC(N)=O)NC(=O)[C@H](Cc2cn(C)c3ccccc23)NC1=O [Compound 10, Ac-SEF[C(1)]I[1-Me-Trp]QDW[Sar]EHR[C(1)]TE[Peg3][Peg3]-K([17-Carboxy-heptadecanoyl][yGlu]G[yGlu])-NH2] (Ac-SEFCI[Trp(1-Me)]QDW[Sar]EHRCTE[AEEA][AEEA]K([γGlu-Gly-γGlu-C18 diacid])-NH2; linker 4-14 via CH2)
IC50 [1]: < 250 nM

Kd (Human C3): 17 nM
Molecule: CC[C@H](C)[C@@H]1NC(=O)[C@@H](NC(=O)[C@H](Cc2ccccc2)NC(=O)[C@H](CCC(=O)O)NC(=O)[C@H](CO)NC(C)=O)CSCSC[C@@H](C(=O)N[C@H](C(=O)N[C@@H](CCC(=O)O)C(=O)NCC(=O)N[C@@H](CCC(=O)O)C(=O)NCCOCCOCC(=O)NCCOCCOCC(=O)N[C@@H](CCCCNC(=O)CC[C@H](NC(=O)CNC(=O)CC[C@H](NC(=O)CCCCCCCCCCCCCCCCC(=O)O)C(=O)O)C(=O)O)C(N)=O)[C@@H](C)O)NC(=O)[C@H](CCCNC(=N)N)NC(=O)[C@H](Cc2c[nH]cn2)NC(=O)[C@H](CCC(=O)O)NC(=O)CN(C)C(=O)[C@H](Cc2c[nH]c3ccccc23)NC(=O)[C@H](CC(=O)O)NC(=O)[C@H](CCC(N)=O)NC(=O)[C@H](Cc2cn(C)c3ccccc23)NC1=O [Compound 9] (Ac-SEFCI[Trp(1-Me)]QDW[Sar]EHRCTEGE[AEEA][AEEA]K([γGlu-Gly-γGlu-C18 diacid])-NH2; linker 4-14 via CH2)
IC50 [1]: < 250 nM

Kd (Human C3): 19 nM
Molecule: CC[C@H](C)[C@@H]1NC(=O)[C@@H](NC(=O)[C@H](Cc2ccccc2)NC(=O)[C@H](CCC(=O)O)NC(=O)[C@H](CO)NC(=O)CNC(=O)[C@H](CCC(=O)O)NC(=O)CCCCCCCCCCCCCCC(=O)O)CSCSC[C@@H](C(=O)N[C@H](C(=O)N[C@@H](CCC(=O)O)C(=O)NCC(=O)N[C@@H](CCC(=O)O)C(N)=O)[C@@H](C)O)NC(=O)[C@H](CCCNC(=N)N)NC(=O)[C@H](Cc2c[nH]cn2)NC(=O)[C@H](CCC(=O)O)NC(=O)CN(C)C(=O)[C@H](Cc2c[nH]c3ccccc23)NC(=O)[C@H](CC(=O)O)NC(=O)[C@H](CCC(N)=O)NC(=O)[C@H](Cc2cn(C)c3ccccc23)NC1=O [Compound 19] ({C16 diacid}-EGSEFCI[Trp(1-Me)]QDW[Sar]EHRCTEGE-NH2; linker 6-16 via CH2)
IC50 [1]: < 250 nM

Kd (Human C3): 15 nM
Molecule: CC[C@H](C)[C@@H]1NC(=O)[C@@H](NC(=O)[C@H](Cc2ccccc2)NC(=O)[C@H](C)NC(=O)[C@H](CO)NC(=O)[C@H](CCC(N)=O)NC(=O)CNC(C)=O)CSCSC[C@@H](C(=O)N[C@H](C(=O)N[C@@H](CCC(=O)O)C(=O)NCC(=O)N[C@@H](CCC(=O)O)C(=O)NCCOCCOCC(=O)NCCOCCOCC(=O)N[C@@H](CCCCNC(=O)CC[C@H](NC(=O)CNC(=O)CC[C@H](NC(=O)CCCCCCCCCCCCCCCCC(=O)O)C(=O)O)C(=O)O)C(N)=O)[C@@H](C)O)NC(=O)[C@H](CCCNC(=N)N)NC(=O)[C@H](Cc2c[nH]cn2)NC(=O)[C@H](CCC(=O)O)NC(=O)CN(C)C(=O)[C@H](Cc2c[nH]c3ccccc23)NC(=O)[C@H](CC(=O)O)NC(=O)[C@H](CCC(N)=O)NC(=O)[C@H](Cc2cn(C)c3ccccc23)NC1=O [Compound 28, Ac-GQSAF[C(1)]I[1-Me-Trp]QDW[Sar]EHR[C(1)]TEGE[Peg3][Peg3]-K([17-Carboxy-heptadecanoyl][yGlu]G[yGlu])-NH2] (Ac-GQSAFCI[Trp(1-Me)]QDW[Sar]EHRCTEGE[AEEA][AEEA]K([γGlu-Gly-γGlu-C18 diacid])-NH2; linker 6-16 via CH2)
IC50 [1]: < 100 nM

Kd [3]: 13 nM
B1: Compound 24 (peptide)
peptide: Ac-ESEQVFCI[Trp(1-Me)]QDW[Sar]EHRCTEGE[AEEA][AEEA]K([γGlu-Gly-γGlu-C18 diacid])-NH2
modifications: bridge 7-17 via methylene thioacetal (-S-CH2-S-)
notes: Synthetic compstatin analogue; also called Comp No 24
IC50 [nM], in vitro inhibition of hemolysis (classical complement pathway; human serum, sensitized sheep RBC) [2]: < 100 nM

Kd [3]: 14 nM
B2: Compound 23 (peptide)
peptide: Ac-ESQVFCI[Trp(1-Me)]QDW[Sar]EHRCTEGE[AEEA][AEEA]K([γGlu-Gly-γGlu-C18 diacid])-NH2
modifications: bridge 6-16 via methylene thioacetal (-S-CH2-S-)
notes: Synthetic compstatin analogue; also called Comp No 23
IC50 [nM], in vitro inhibition of hemolysis (classical complement pathway; human serum, sensitized sheep RBC) [2]: < 100 nM

Kd [3]: 9.1 nM
B3: Compound 25 (peptide)
peptide: Ac-SEQAFCI[Trp(1-Me)]QDW[Sar]EHRCTEGE[AEEA][AEEA]K([γGlu-Gly-γGlu-C18 diacid])-NH2
modifications: bridge 6-16 via methylene thioacetal (-S-CH2-S-)
notes: Synthetic compstatin analogue; also called Comp No 25; comp 25
IC50 [nM], in vitro inhibition of hemolysis (classical complement pathway; human serum, sensitized sheep RBC) [2]: < 100 nM

Kd [3]: 11 nM
B4: Compound 26 (peptide)
peptide: Ac-SKQEFCI[Trp(1-Me)]QDW[Sar]EHRCTEGE[AEEA][AEEA]K([γGlu-Gly-γGlu-C18 diacid])-NH2
modifications: bridge 6-16 via methylene thioacetal (-S-CH2-S-)
notes: Synthetic compstatin analogue; also called Comp No 26
IC50 [nM], in vitro inhibition of hemolysis (classical complement pathway; human serum, sensitized sheep RBC) [2]: < 100 nM
